# Values of other authors as cited in US8338381B2, “Composition and method for the treatment of eye disease” (ADER Enterprise, Inc., priority 2003, dated 2012).
# Assays:
# eye cataracts = conditions: administered directly to the eye; Babizhayev 1996
# [1] = administered directly to the eye; Babizhayev 1996
compound,measurement,setting,value
"NCCC(=O)N[C@@H](Cc1cnc[nH]1)C(=O)O [L-carnosine, β-alanyl-L-histidine]",effect on eye cataracts beyond placebo control,eye cataracts,does not lead to accumulation in the aqueous humor of the eye or have any significant effect on eye cataracts beyond that of a placebo control
same,accumulation in the aqueous humor of the eye,[1],does not lead to accumulation in the aqueous humor of the eye
